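Protocol summary: plate cells (96-well), add compound at 5 concentrations, incubate 48 h, interpolate endpoints linearly. GI50 = concentration required for 50% inhibition of growth. TGI is the concentration that stops growth completely.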
Columns and labels:
Test in all cases: growth of human tumour cells (NCI), 48 h
786-0 renal = test system: 786-0 renal
A498 renal = test system: A498 renal
A549 NSCLC = test system: A549 NSCLC
ACHN renal = test system: ACHN renal
BT-549 breast = test system: BT-549 breast
CAKI-1 renal = test system: CAKI-1 renal
COLO 205 colon = test system: COLO 205 colon
DU-145 prostate = test system: DU-145 prostate
EKVX NSCLC = test system: EKVX NSCLC
HCC-2998 colon = test system: HCC-2998 colon
HCT-116 colon = test system: HCT-116 colon
HCT-15 colon = test system: HCT-15 colon
HOP-62 NSCLC = test system: HOP-62 NSCLC
HOP-92 NSCLC = test system: HOP-92 NSCLC
HS 578T breast = test system: HS 578T breast
HT29 colon = test system: HT29 colon
IGROV1 ovarian = test system: IGROV1 ovarian
KM12 colon = test system: KM12 colon
LOX IMVI melanoma = test system: LOX IMVI melanoma
M14 melanoma = test system: M14 melanoma
MALME-3M melanoma = test system: MALME-3M melanoma
MCF7 breast = test system: MCF7 breast
MDA-MB-231 breast = test system: MDA-MB-231 breast
MDA-MB-435 = test system: MDA-MB-435
NCI-H226 lung = test system: NCI-H226 lung
NCI-H23 lung = test system: NCI-H23 lung
NCI-H460 lung = test system: NCI-H460 lung
NCI-H522 lung = test system: NCI-H522 lung
NCI/ADR-RES ovarian = test system: NCI/ADR-RES ovarian
OVCAR-3 ovarian = test system: OVCAR-3 ovarian
OVCAR-4 ovarian = test system: OVCAR-4 ovarian
OVCAR-5 ovarian = test system: OVCAR-5 ovarian
OVCAR-8 ovarian = test system: OVCAR-8 ovarian
PC-3 prostate = test system: PC-3 prostate
RPMI-8226 leukemia = test system: RPMI-8226 leukemia
RXF 393 renal = test system: RXF 393 renal
SF-268 CNS = test system: SF-268 CNS
SF-295 CNS = test system: SF-295 CNS
SF-539 CNS = test system: SF-539 CNS
SK-MEL-2 melanoma = test system: SK-MEL-2 melanoma
SK-MEL-28 melanoma = test system: SK-MEL-28 melanoma
SK-MEL-5 melanoma = test system: SK-MEL-5 melanoma
SK-OV-3 ovarian = test system: SK-OV-3 ovarian
SN12C renal = test system: SN12C renal
SNB-19 CNS = test system: SNB-19 CNS
SNB-75 CNS = test system: SNB-75 CNS
SW-620 colon = test system: SW-620 colon
T-47D breast = test system: T-47D breast
TK-10 renal = test system: TK-10 renal
U251 CNS = test system: U251 CNS
UACC-257 melanoma = test system: UACC-257 melanoma
UACC-62 melanoma = test system: UACC-62 melanoma
UO-31 renal = test system: UO-31 renal

## CCCCCCCCCNCCCCCCCCC
786-0 renal
  GI50: 1.98 µM
  TGI: 3.43 µM
A498 renal
  GI50: 9.79 µM
  TGI: 24.5 µM
A549 NSCLC
  GI50: 2.04 µM
  TGI: 4.08 µM
ACHN renal
  GI50: 1.76 µM
  TGI: 3.14 µM
BT-549 breast
  GI50: 1.93 µM
  TGI: 3.38 µM
CAKI-1 renal
  GI50: 1.49 µM
  TGI: 3.09 µM
COLO 205 colon
  GI50: 1.77 µM
  TGI: 3.22 µM
DU-145 prostate
  GI50: 1.85 µM
  TGI: 3.74 µM
EKVX NSCLC
  GI50: 2.15 µM
  TGI: 5.95 µM
HCC-2998 colon
  GI50: 1.69 µM
  TGI: 3.24 µM
HCT-116 colon
  GI50: 1.77 µM
  TGI: 3.16 µM
HCT-15 colon
  GI50: 1.79 µM
  TGI: 3.47 µM
HOP-62 NSCLC
  GI50: 1.93 µM
  TGI: 3.38 µM
HOP-92 NSCLC
  GI50: 1.47 µM
  TGI: 3.03 µM
HS 578T breast
  GI50: 1.83 µM
  TGI: 4.16 µM
HT29 colon
  GI50: 1.27 µM
  TGI: 2.88 µM
IGROV1 ovarian
  GI50: 1.89 µM
  TGI: 3.8 µM
KM12 colon
  GI50: 1.83 µM
  TGI: 3.29 µM
LOX IMVI melanoma
  GI50: 1.61 µM
  TGI: 3.02 µM
M14 melanoma
  GI50: 1.76 µM
  TGI: 3.19 µM
MALME-3M melanoma
  GI50: 1.91 µM
  TGI: 3.85 µM
MCF7 breast
  GI50: 1.7 µM
  TGI: 3.3 µM
MDA-MB-231 breast
  GI50: 1.56 µM
  TGI: 3.21 µM
MDA-MB-435
  GI50: 1.85 µM
  TGI: 3.58 µM
NCI-H226 lung
  GI50: 1.83 µM
  TGI: 3.61 µM
NCI-H23 lung
  GI50: 1.72 µM
  TGI: 3.39 µM
NCI-H460 lung
  GI50: 1.93 µM
  TGI: 3.65 µM
NCI-H522 lung
  GI50: 1.54 µM
  TGI: 3.08 µM
NCI/ADR-RES ovarian
  GI50: 1.71 µM
  TGI: 3.37 µM
OVCAR-3 ovarian
  GI50: 1.93 µM
  TGI: 3.46 µM
OVCAR-4 ovarian
  GI50: 1.75 µM
  TGI: 3.78 µM
OVCAR-5 ovarian
  GI50: 1.88 µM
  TGI: 3.91 µM
OVCAR-8 ovarian
  GI50: 2.19 µM
  TGI: 4.66 µM
PC-3 prostate
  GI50: 2.03 µM
  TGI: 4.7 µM
RPMI-8226 leukemia
  GI50: 1.96 µM
  TGI: 4.18 µM
RXF 393 renal
  GI50: 1.81 µM
  TGI: 3.25 µM
SF-268 CNS
  GI50: 2.29 µM
  TGI: 5.28 µM
SF-295 CNS
  GI50: 1.74 µM
  TGI: 3.29 µM
SF-539 CNS
  GI50: 1.9 µM
  TGI: 3.4 µM
SK-MEL-2 melanoma
  GI50: 1.8 µM
  TGI: 3.41 µM
SK-MEL-28 melanoma
  GI50: 1.76 µM
  TGI: 3.29 µM
SK-MEL-5 melanoma
  GI50: 1.77 µM
  TGI: 3.2 µM
SK-OV-3 ovarian
  GI50: 2.04 µM
  TGI: 3.83 µM
SN12C renal
  GI50: 1.59 µM
  TGI: 3.25 µM
SNB-19 CNS
  GI50: 2.78 µM
  TGI: 9.83 µM
SNB-75 CNS
  GI50: 1.57 µM
  TGI: 3.38 µM
SW-620 colon
  GI50: 1.76 µM
  TGI: 3.48 µM
T-47D breast
  GI50: 1.91 µM
  TGI: 3.59 µM
TK-10 renal
  GI50: 1.75 µM
  TGI: 3.23 µM
U251 CNS
  GI50: 1.71 µM
  TGI: 3.15 µM
UACC-257 melanoma
  GI50: 1.93 µM
  TGI: 3.61 µM
UACC-62 melanoma
  GI50: 1.74 µM
  TGI: 3.35 µM
UO-31 renal
  GI50: 1.62 µM
  TGI: 3.8 µM

From PubChem BioAssay (NCI)
